Where a name gives a salt, the structure may show the parent alone. Positions of bridges follow the written chain, without caps; N, C: chain ends. Non-standard residues stand in square brackets, D forms with d. Residues, ends and D or L forms follow the SMILES beside them. *: point of attachment. X3 = CC[C@H](C)CCCCC(=O)*; Dab = NCC[C@H](N)C(=O)O
Test: in vitro
Conditions: rat, gh3-tre-luc cells

SMILES | CC50 at 24 h (AC50 (uM) modified / 1000) [µM] | further results
CCN(CC)C(C)CN1c2ccccc2Sc2ccccc21 (stereo not shown) [Ethopropazine hydrochloride] | 10.7 | 
CCOC(=O)CC(SP(=S)(OC)OC)C(=O)OCC (stereo not shown) [Malathion] |  | CC50 at 24 h (AC50 (uM) modified / 1000, Tox21_110001=Tox21_111175, viability, 1 nM T3 present, 24 h): > 50 µM; CC50 at 24 h (AC50 (uM) modified / 1000, Tox21_110001=Tox21_400048, viability, 1 nM T3 present, 24 h): > 90 µM
C=CC(N)=O [Acrylamide] | > 90 | 
CC(C)OC(=O)COc1ccc(Cl)cc1Cl [2,4-D isopropyl ester] | > 90 | 
CC[C@H](C)CCCCC(=O)N[C@@H](CCN)C(=O)N[C@H](C(=O)N[C@@H](CCN)C(=O)N[C@H]1CCNC(=O)[C@H]([C@@H](C)O)NC(=O)[C@H](CCN)NC(=O)[C@H](CCN)NC(=O)[C@H](CC(C)C)NC(=O)[C@@H](CC(C)C)NC(=O)[C@H](CCN)NC1=O)[C@@H](C)O [Colistin A] (X3-[Dab]T[Dab][Dab][Dab][dL]L[Dab][Dab]T; lactam 4-C) | > 50 | 
C=COCC1CCC(CO)CC1 (stereo not shown) [{4-[(Ethenyloxy)methyl]cyclohexyl}methanol] | > 90 | 
CNC(C)C(O)c1ccc(O)cc1 (stereo not shown) [1-(4-Hydroxyphenyl)-2-methyl-2-methylaminoethanol hydrochloride] | > 50 | 
CN1CC(=O)N=C1NC(=O)Nc1cccc(Cl)c1 [Fenobam] | > 50 | 
CCC(Cc1c(I)cc(I)c(O)c1I)C(=O)O (stereo not shown) [Iophenoxic acid] | > 50 | 
C=C1C[C@@H]2[C@H](CC[C@]3(C)C(=O)CC[C@@H]23)[C@@]2(C)C=CC(=O)C=C12 [Exemestane] | > 50 | 
CN(C)NC(=O)CCC(=O)O [Daminozide] |  | CC50 at 24 h (AC50 (uM) modified / 1000, Tox21_110001=Tox21_202199, viability, 1 nM T3 present, 24 h): > 90 µM
O=C(O)c1ccc(NC2OC[C@@H](O)[C@H](O)[C@H]2O)cc1 (stereo partly shown) [Benaxibine] | > 50 | 
COC(=O)N(OC)c1ccccc1COc1ccn(-c2ccc(Cl)cc2)n1 [Pyraclostrobin] | 59.8 | 
CC(C)n1c(/C=C/[C@H](O)C[C@H](O)CC(=O)O)c(-c2ccc(F)cc2)c2ccccc21 (racemic) [Fluvastatin] | > 90 | 
Cc1nc2n(c(=O)c1CCN1CCC(c3noc4cc(F)ccc34)CC1)CCCC2O (stereo not shown) [Paliperidone] | > 50 | 
FC(F)(F)c1cccc(C2=CCN(CCc3ccc4ccncc4c3)CC2)c1 [SSR150106] | 76.9 | 
CN(C)CCOC1=Cc2ccccc2Sc2ccc(Cl)cc21 [Zotepine] | 6.89 | 
ClC1=C(Cl)[C@]2(Cl)[C@H]3[C@H]([C@H]4C=C[C@@H]3C4)[C@@]1(Cl)C2(Cl)Cl [Isodrin] |  | CC50 at 24 h (AC50 (uM) modified / 1000, Tox21_110001=Tox21_301429, viability, 1 nM T3 present, 24 h): 66.4 µM
COCCCOc1ccnc(C[S+]([O-])c2nc3ccccc3[nH]2)c1C (stereo not shown) [Rabeprazole sodium] | > 90 | 
O=C(O)Cc1nn(Cc2ccc(Br)cc2F)c(=O)c2ccccc12 [Ponalrestat] | > 50 | 
O=C(OOC(=O)c1ccccc1)c1ccccc1 [Benzoyl peroxide] | > 50 | 
O=C(OCC(O)CO)c1ccccc1Nc1ccnc2cc(Cl)ccc12 (stereo not shown) [Glafenine hydrochloride] | > 20 | 
CN(C)CCCNCCC#N [3-{[3-(Dimethylamino)propyl]amino}propanenitrile] | > 90 | 

SMILES | CC50 at 24 h (AC50 (uM) modified / 1000) [µM] | further results
ClC1=C(Cl)C1(Cl)Cl [Tetrachlorocyclopropene] | > 90 | 
CCCCC(CC)C(=O)OCCOCCOCCOC(=O)C(CC)CCCC (stereo not shown) [Triethylene glycol bis(2-ethylhexanoate)] | > 90 | 
O=C(O)COc1ccc2ccccc2c1 [2-Naphthoxyacetic acid] | > 90 | 
CN1C(=O)c2ccccc2C1=O [N-Methylphthalimide] | > 90 | 
CC(=O)OC(C(=O)c1ccccc1)c1ccccc1 (stereo not shown) [Benzoin acetate] | > 90 | 
COc1ccccc1OCC(O)COC(N)=O (stereo not shown) [Methocarbamol] | > 20 | 
COc1ccc(CN(CCN(C)C)c2ncccn2)cc1 [Thonzylamine hydrochloride] | > 50 | 
CN(CCCCCCCCCCN(C)C(=O)Oc1cccc([N+](C)(C)C)c1)C(=O)Oc1cccc([N+](C)(C)C)c1 [Demecarium bromide] | > 20 | 
C/C=C/C(=O)CCCC [2-Octen-4-one] | > 90 | 
Cc1ccc(C=O)cc1C [3,4-Dimethylbenzaldehyde] | > 90 | 
Cc1oc2c(NC(=O)c3c(Cl)cccc3Cl)cccc2c1C(C)(C)O [FR167356] | 19.6 | 
COC(=O)C1=C(C)NC(C)=C(C(=O)OC(C)(C)CN(C)CCC(c2ccccc2)c2ccccc2)C1c1cccc([N+](=O)[O-])c1 (stereo not shown) [lercanidipine hydrochloride] | 8.65 | 
CC(C)(C)NCCO [2-(tert-Butylamino)ethanol] | > 90 | 
O=C(O)C(Cl)Cl [Dichloroacetic acid] | > 90 | 
CC(=O)O[C@]1(C(C)=O)CC[C@H]2[C@@H]3C=C(Cl)C4=CC(=O)[C@@H]5C[C@@H]5[C@]4(C)[C@H]3CC[C@@]21C [Cyproterone acetate] | 66.8 | 
CC(=O)N(O)CCCCCNC(=O)CCC(=O)N(O)CCCCCNC(=O)CCC(=O)N(O)CCCCCN [Deferoxamine mesylate] | > 20 | 
CCCCCCCC/C=C\CCCCCCCC(=O)OCCCC [9-Octadecenoic acid (9Z)-, butyl ester] | > 20 | 
CC(C)=O [Acetone] | > 90 | 
CC(C(O)c1ccc(O)cc1)N1CCC(Cc2ccccc2)CC1 (stereo not shown) [Ifenprodil] | 19.6 | 
CNC(=O)c1cc(Oc2ccc(NC(=O)Nc3ccc(Cl)c(C(F)(F)F)c3)cc2)ccn1 [Sorafenib tosylate] | 9.89 | 
CC1(C)N=C(N)N=C(N)N1c1ccc(Cl)cc1 [Cycloguanil hydrochloride] | > 50 | 
C=C(C)C(=O)OCC(C)(C)COC(=O)C(=C)C [2,2-Dimethylpropane-1,3-diyl bis(2-methylprop-2-enoate)] | > 90 | 
CN[C@@H]1[C@@H](O)[C@@H](O[C@@H]2[C@@H](O)[C@H](O[C@H]3OC(CN)=CC[C@H]3N)[C@@H](N)C[C@H]2N)OC[C@]1(C)O [Sisomicin sulfate] | > 20 | 

SMILES | CC50 at 24 h (AC50 (uM) modified / 1000) [µM] | further results
CCCCCCCC1CCCC1=O (stereo not shown) [2-Heptylcyclopentanone] | > 90 | 
CCc1cc(S(=O)(=O)O)c2cc(C(C)C)cccc1-2 [Egualen sodium] | > 50 | 
CCCCCCC(=O)O [Heptanoic acid] | > 90 | 
C=CCN(C1=NCCN1)c1c(Cl)cccc1Cl [Alinidine] | > 50 | 
CCCOC/C(=N\c1ccc(Cl)cc1C(F)(F)F)n1ccnc1 [Triflumizole] | 58.4 | 
O=C1C[N+]([O-])=C(c2ccccc2)c2cc(Cl)ccc2N1 [Demoxepam] |  | CC50 at 24 h (AC50 (uM) modified / 1000, Tox21_110001=Tox21_111817, viability, 1 nM T3 present, 24 h): > 50 µM
O=C1OC(c2cc(I)c(O)c(I)c2)(c2cc(I)c(O)c(I)c2)c2ccccc21 [Iodophthalein] | 36.2 | 
COc1ccccc1OC(=O)Oc1ccccc1OC [Guaiacol carbonate] | > 50 | 
ClCCOCOCCCl [Bis(2-chloroethoxy)methane] |  | CC50 at 24 h (AC50 (uM) modified / 1000, Tox21_110001=Tox21_200284, viability, 1 nM T3 present, 24 h): > 100 µM
CC(C)[C@@H]1CC[C@@H](C)CC1=O [(2S,5R)-5-Methyl-2-(propan-2-yl)cyclohexanone] | > 90 | 
Cc1cc(C)c(C)c(O)c1 [2,3,5-Trimethylphenol] | > 90 | 
O=S(=O)(O)C(F)(F)C(F)(F)C(F)(F)C(F)(F)C(F)(F)C(F)(F)C(F)(F)C(F)(F)F [Lithium perfluorooctanesulfonate] |  | CC50 at 24 h (AC50 (uM) modified / 1000, Tox21_110001=Tox21_302319, viability, 1 nM T3 present, 24 h): 52.3 µM
O=C(O)CNC(=O)CNC(=O)CNC(=O)CSC(=O)c1ccccc1 [Betiatide] | > 50 | 
OC[C@H]1O[C@H](O[C@@]2(CO)O[C@@H](O)[C@H](O)[C@@H]2O)[C@H](O)[C@@H](O)[C@@H]1O [alpha-L-Lyxo-hex-5-ulofuranosyl alpha-D-glucopyranoside] | > 50 | 
CC1=CC(C)(C)Nc2ccccc21 [1,2-Dihydro-2,2,4-trimethylquinoline] | > 90 | 
CC(C)CC(O)Cc1ccccc1 (stereo not shown) [4-Methyl-1-phenyl-2-pentanol] | > 90 | 
OCCN1CCN(CC/C=C2/c3ccccc3Sc3ccc(Cl)cc32)CC1 [Zuclopenthixol dihydrochloride] | 8.55 | 
CC(C)(CCl)c1ccccc1 [Neophyl chloride] | > 90 | 
C=C1CC[C@@]2(O)[C@H]3Cc4ccc(O)c5c4[C@@]2(CCN3CC2CC2)[C@H]1O5 [Nalmefene] | > 50 | 
O=[N+]([O-])c1cccc(CCl)c1 [3-Nitrobenzyl chloride] | > 90 | 
CCCCOC(=O)[C@@H](C)Oc1ccc(Oc2ccc(C(F)(F)F)cn2)cc1 [Fluazifop-P-butyl] | > 90 | 
CC(=O)CCC(C)=O [2,5-Hexanedione] | > 90 | 
Nc1ccc(C(=O)Nc2ccccc2N)cc1 [Dianiline] | 14.1 | 

— publication PMC6792352, “Limited Chemical Structural Diversity Found to Modulate Thyroid Hormone Receptor in the Tox21 Chemical Library” (Environmental Health Perspectives, 2019)
